Reference: US9399646B2 (Genentech, Inc., priority 2010, dated 2016)

Tests used:
MCF-7 cells = assay: Breast cancer cell viability assay (CellTiter-Glo, 5 days); type: cell-based; settings: 5 days' compound exposure; for IC50: Homo sapiens, MCF7, 120 h
Outline: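 Eleven-point semilog compound series, final 0.3-0.000003 μM, added to overnight-adhered MCF-7 cells (320/well; RPMI, 10% FBS, 20 mM HEPES) for 5 days. Viability read by CellTiter-Glo luminescence, background from medium without cells subtracted, expressed relative to untreated cells.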

ER-α in MCF-7 cells = biological target: T1, ER-α in MCF-7 cells (Homo sapiens, UniProt P03372); assay: Breast cancer cell ER-α in cell western assay (SP1); type: cell-based; parameters: endogenous in cells; host or cells: MCF-7; settings: 4 or 24 hr post compound addition; for Emax: MCF7, SP1 antibody, read-out: ER-α In Cell Western Assay (SP1) Max Response; for DC50: SP1 antibody, read-out: ER-α In Cell Western Assay (SP1) IC50
T1 sequence (P03372 1-595): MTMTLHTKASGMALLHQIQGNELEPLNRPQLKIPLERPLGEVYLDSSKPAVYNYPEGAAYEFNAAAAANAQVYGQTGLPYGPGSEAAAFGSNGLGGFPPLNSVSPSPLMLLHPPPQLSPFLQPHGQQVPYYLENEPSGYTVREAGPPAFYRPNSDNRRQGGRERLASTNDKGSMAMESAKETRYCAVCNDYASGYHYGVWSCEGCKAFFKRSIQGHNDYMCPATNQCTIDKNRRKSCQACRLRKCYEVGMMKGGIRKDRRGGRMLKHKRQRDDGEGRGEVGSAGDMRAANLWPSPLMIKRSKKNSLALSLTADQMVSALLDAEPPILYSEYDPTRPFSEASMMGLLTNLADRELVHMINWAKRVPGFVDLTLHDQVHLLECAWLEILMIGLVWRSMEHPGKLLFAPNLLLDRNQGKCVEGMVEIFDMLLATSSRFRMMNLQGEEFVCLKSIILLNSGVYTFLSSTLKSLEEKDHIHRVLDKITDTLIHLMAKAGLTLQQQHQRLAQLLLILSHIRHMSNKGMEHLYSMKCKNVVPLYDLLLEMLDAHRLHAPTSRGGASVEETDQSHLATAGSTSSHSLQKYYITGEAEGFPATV
Outline: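 Fixed cells were immunostained with SP1 anti-ER antibody; ER signal (800 nm) was normalized to DRAQ5 DNA signal (700 nm) and expressed as % of untreated cells.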

Structure (SMILES) | MCF7 Viability Assay Max Response (MCF-7 cells) | IC50 (MCF-7 cells) | Emax (ER-α in MCF-7 cells) | DC50 (ER-α in MCF-7 cells)
CCCCCCOc1cccc(/C(CC)=C(\c2ccc(/C=C/C(=O)O)cc2)c2ccc3[nH]ncc3c2)c1 [Compound 350, (E)-3-(4-((E)-2-(3-(Hexyloxy)phenyl)-1-(1H-indazol-5-yl)but-1-en-1-yl)phenyl)acrylic acid] | ++ (++ = a single % value ≧ 40%) | > 100 nM | ≥ 40% | ≤ 100 nM
CC/C(=C(/c1ccc(/C=C/C(=O)O)cc1)c1ccc2[nH]ncc2c1)c1cccc(OCCCC(=O)O)c1 [Compound 351, 4-(3-((E)-1-(4-((E)-2-Carboxyvinyl)phenyl)-1-(1H-indazol-5-yl)but-1-en-2-yl)phenoxy)butanoic acid] | + (+ = a single % value < 40%) | > 100 nM | ≥ 40% | > 100 nM
CC/C(=C(/c1ccc(/C=C/C(=O)O)cc1)c1ccc2[nH]ncc2c1)c1cccc(OCCCCC(=O)O)c1 [Compound 352, 5-(3-((E)-1-(4-((E)-2-Carboxyvinyl)phenyl)-1-(1H-indazol-5-yl)but-1-en-2-yl)phenoxy)pentanoic acid] | + (+ = a single % value < 40%) | > 100 nM | ≥ 40% | > 100 nM
CC/C(=C(/c1ccc(/C=C/C(=O)O)cc1)c1ccc2[nH]ncc2c1)c1ccc(OCCCC(=O)O)cc1 [Compound 353, 4-(4-((E)-1-(4-((E)-2-Carboxyvinyl)phenyl)-1-(1H-indazol-5-yl)but-1-en-2-yl)phenoxy)butanoic acid] | + (+ = a single % value < 40%) | > 100 nM | ≥ 40% | > 100 nM
CC/C(=C(/c1ccc(/C=C/C(=O)O)cc1)c1ccc2[nH]ncc2c1)c1ccc(OCCCCC(=O)O)cc1 [Compound 354, 5-(4-((E)-1-(4-((E)-2-Carboxyvinyl)phenyl)-1-(1H-indazol-5-yl)but-1-en-2-yl)phenoxy)pentanoic acid] | + (+ = a single % value < 40%) | > 100 nM | ≥ 40% | > 100 nM
CCCCCOc1ccc(/C(CC)=C(\c2ccc(/C=C/C(=O)O)cc2)c2ccc3[nH]ncc3c2)cc1 [Compound 356, (E)-3-(4-((E)-1-(1H-Indazol-5-yl)-2-(4-(pentyloxy)phenyl)but-1-en-1-yl)phenyl)acrylic acid] | ++ (++ = a single % value ≧ 40%) | > 100 nM | ≥ 40% | ≤ 100 nM
CCCCCCOc1ccc(/C(CC)=C(\c2ccc(/C=C/C(=O)O)cc2)c2ccc3[nH]ncc3c2)cc1 [Compound 357, (E)-3-(4-((E)-2-(4-(Hexyloxy)phenyl)-1-(1H-indazol-5-yl)but-1-en-1-yl)phenyl)acrylic acid] | ++ (++ = a single % value ≧ 40%) | > 100 nM | ≥ 40% | > 100 nM
CC/C(=C(/c1ccc(/C=C/C(=O)O)cc1)c1ccc2[nH]ncc2c1)c1cccc(OCc2ccccc2)c1 [Compound 358, (E)-3-(4-((E)-2-(3-(Benzyloxy)phenyl)-1-(1H-indazol-5-yl)but-1-en-1-yl)phenyl)acrylic acid] | ++ (++ = a single % value ≧ 40%) | ≤ 100 nM | ≥ 40% | ≤ 100 nM
CC/C(=C(/c1ccc(/C=C/C(=O)O)cc1)c1ccc2[nH]ncc2c1)c1cccc(OCc2cccnc2)c1 [Compound 359, (E)-3-(4-((E)-1-(1H-Indazol-5-yl)-2-(3-(pyridin-3-ylmethoxy)phenyl)but-1-en-1-yl)phenyl)acrylic acid] | ++ (++ = a single % value ≧ 40%) | ≤ 100 nM | ≥ 40% | ≤ 100 nM
CC/C(=C(/c1ccc(/C=C/C(=O)O)cc1)c1ccc2[nH]ncc2c1)c1ccc(OCCO)cc1 [Compound 360, (E)-3-(4-((E)-2-(4-(2-Hydroxyethoxy)phenyl)-1-(1H-indazol-5-yl)but-1-en-1-yl)phenyl)acrylic acid] | ++ (++ = a single % value ≧ 40%) | > 100 nM | ≥ 40% | > 100 nM
CC/C(=C(/c1ccc(/C=C/C(=O)O)cc1)c1ccc2[nH]ncc2c1)c1cccc(Oc2ccccn2)c1 [Compound 362, (E)-3-(4-((E)-1-(1H-Indazol-5-yl)-2-(3-(pyridin-2-yloxy)phenyl)but-1-en-1-yl)phenyl)acrylic acid] | ++ (++ = a single % value ≧ 40%) | ≤ 100 nM | ≥ 40% | ≤ 100 nM
CC/C(=C(/c1ccc(/C=C/C(=O)O)cc1)c1ccc2[nH]ncc2c1)c1cccc(Oc2ncccn2)c1 [Compound 363, (E)-3-(4-((E)-1-(1H-Indazol-5-yl)-2-(3-(pyrimidin-2-yloxy)phenyl)but-1-en-1-yl)phenyl)acrylic acid] | ++ (++ = a single % value ≧ 40%) | ≤ 100 nM | ≥ 40% | ≤ 100 nM
CC/C(=C(/c1ccc(/C=C/C(=O)O)cc1)c1ccc2[nH]ncc2c1)c1cccc(Oc2ccncn2)c1 [Compound 364, (E)-3-(4-((E)-1-(1H-Indazol-5-yl)-2-(3-(pyrimidin-4-yloxy)phenyl)but-1-en-1-yl)phenyl)acrylic acid] | ++ (++ = a single % value ≧ 40%) | ≤ 100 nM | ≥ 40% | ≤ 100 nM
CC/C(=C(/c1ccc(/C=C/C(=O)O)cc1)c1ccc2[nH]ncc2c1)c1cccc(Oc2cccnc2)c1 [Compound 365, (E)-3-(4-((E)-1-(1H-Indazol-5-yl)-2-(3-(pyridin-3-yloxy)phenyl)but-1-en-1-yl)phenyl)acrylic acid] | ++ (++ = a single % value ≧ 40%) | ≤ 100 nM | ≥ 40% | ≤ 100 nM
CC/C(=C(/c1ccc(/C=C/C(=O)O)cc1)c1ccc2[nH]ncc2c1)c1cccc(Oc2ccncc2)c1 [Compound 366, (E)-3-(4-((E)-1-(1H-Indazol-5-yl)-2-(3-(pyridin-4-yloxy)phenyl)but-1-en-1-yl)phenyl)acrylic acid] | ++ (++ = a single % value ≧ 40%) | ≤ 100 nM | ≥ 40% | ≤ 100 nM
CC/C(=C(/c1ccc(/C=C/C(=O)O)cc1)c1ccc2[nH]ncc2c1)c1cccc(Oc2ccccc2F)c1 [Compound 367, (E)-3-(4-((E)-2-(3-(2-Fluorophenoxy)phenyl)-1-(1H-indazol-5-yl)but-1-en-1-yl)phenyl)acrylic acid] | ++ (++ = a single % value ≧ 40%) | ≤ 100 nM | ≥ 40% | ≤ 100 nM
CC/C(=C(/c1ccc(/C=C/C(=O)O)cc1)c1ccc2[nH]ncc2c1)c1cccc(Oc2ccccc2C)c1 [Compound 368, (E)-3-(4-((E)-1-(1H-Indazol-5-yl)-2-(3-(o-tolyloxy)phenyl)but-1-en-1-yl)phenyl)acrylic acid] | ++ (++ = a single % value ≧ 40%) | ≤ 100 nM | ≥ 40% | ≤ 100 nM
CC/C(=C(/c1ccc(/C=C/C(=O)O)cc1)c1ccc2[nH]ncc2c1)c1cccc(Oc2cncnc2)c1 [Compound 369, (E)-3-(4-((E)-1-(1H-Indazol-5-yl)-2-(3-(pyrimidin-5-yloxy)phenyl)but-1-en-1-yl)phenyl)acrylic acid] | ++ (++ = a single % value ≧ 40%) | > 100 nM | ≥ 40% | ≤ 100 nM
